Consider six compounds from publication PMC9705858, “Anti-Endotoxin 9-Meric Peptide with Therapeutic Potential for the Treatment of Endotoxemia” (Journal of Microbiology and Biotechnology, 2020).

In brackets after ≈: the same amount, converted by molar mass. Like-named read-outs stand apart in the source and are kept apart here. Non-standard residues stand in square brackets, D forms with d. Residues, ends and D or L forms follow the SMILES beside them.

Data set [1] concerns MDR Acinetobacter baumannii CCARM 12220. Type of data set: cell-based. Conditions: MDRAB 12220; 99% growth inhibition; 2 × 10^5 CFU/ml, 37°C, 16 h, A600. From the text:
(§1) The gram-negative bacterial strains Escherichia coli (KCTC 1682) and Acinetobacter baumannii (KCCM 40203) were purchased from the Korean Collection for Type Cultures (Korea) and the Korean Culture Center of Microorganisms (Korea), respectively. The MDR gram-negative strains Escherichia coli CCARM 1229, Escherichia coli CCARM 1238, Acinetobacter baumannii CCARM 12010, and Acinetobacter baumannii CCARM 12220 were obtained from the Culture Collection of Antibiotic-Resistant Microbes at Seoul Women’s University (South Korea).
(§2) The antibacterial properties of all peptides were determined by measuring the Minimum Inhibitory Concentration (MIC) as described previously. […] Two-fold serial dilutions of respective peptides were inoculated in 96-well plates in Mueller-Hinton medium, followed by the addition of bacterial suspensions (2 × 10^5 CFU/ml) at the log growth phase. The plates were incubated at 37°C for 16 h, and absorbance was read at 600 nm using a SpectraMAX microplate reader (Molecular Devices, USA).

For data set [2], the system named is Escherichia coli (KCTC 1682). Type of data set: cell-based.
Description: as §1, §2

The subject of data set [3] is Acinetobacter baumannii (KCCM 40203). Type of data set: cell-based.
Description: as §1, §2

Data set [4] relates to MDR Escherichia coli CCARM 1238. In kind it is cell-based. The following applies: MDREC 1238; 99% growth inhibition; 2 × 10^5 CFU/ml, 37°C, 16 h, A600.
Description: as §1, §2

Data set [5] has as its system MDR Acinetobacter baumannii CCARM 12010. Type of data set: cell-based. The following applies: MDRAB 12010; 99% growth inhibition; 2 × 10^5 CFU/ml, 37°C, 16 h, A600.
Description: as §1, §2

The test system of data set [6] is MDR Escherichia coli CCARM 1229. Type of data set: cell-based. Conditions: MDREC 1229; 99% growth inhibition; 2 × 10^5 CFU/ml, 37°C, 16 h, A600.
Description: as §1, §2

For data set [7], the system named is sheep red blood cells. The experiment in a line: Hemolysis of sheep red blood cells. In kind it is cell-based. On the procedure: (§3) The capacity of peptides in the lysis of erythrocytes was analyzed using sheep red blood cells (RBCs) as described previously. Cytotoxicity was further assessed in mouse macrophage RAW264.7 cells, which were cultured in Dulbecco’s modified Eagle medium (Thermo Fischer Scientific Inc., USA) enriched with fetal bovine serum (10%) and antibiotics (penicillin/streptomycin, 100 IU/ 100 mg/L) at 37°C in a CO2 incubator. The cytotoxic effect of Pro9-3 series peptides against RAW264.7 cells was then determined using WST-8 Cell Proliferation Assay Kit (Biomax Co. Ltd., Korea). The analysis was carried out according to our previously reported method.

Data set [8] relates to RAW264.7 cells. The experiment in a line: Cytotoxicity, WST-8 cell proliferation assay. Conditions: 24 h, mean of three experiments. In kind it is cell-based, mouse. On the procedure:
as §3
Fig. 1 Cytotoxicities of peptides. (A) Dose-dependent hemolytic activities in sheep red blood cell (sRBC) caused by peptides. (B) Dose-response cytotoxicities of the Pro9-3 and its analogs against RAW264.7 cells for 24 h. Melittin was used as a positive control. The values are expressed as the mean ± SEM of three independent experiments: *p < 0.05; **p < 0.01; ***p < 0.001; ns, not significant.
On the technique in general: Tetrazolium assays rely on reduction of a dye to a coloured formazan, in cell work by metabolically active cells.

Data set [9] deals with gram-negative bacterial strains and MDR bacterial strains. As to the kind of experiment: Geometric mean of MICs over all tested bacterial strains and relative selective index. In kind it is cell-based, Escherichia coli, Acinetobacter baumannii. The following applies: larger values indicate greater cell selectivity.
Description: The geometric means (GM) of MICs were assessed to evaluate the antibacterial activities of Pro9-3 series against tested bacterial strains.
Data set [10] in a line: Limulus amebocyte lysate (LAL) assay, LPS neutralization. In kind it is biochemical, Escherichia coli. The following applies: 50 μM peptide, 2 ng/ml LPS, 15 min at 37°C. As to the method: To check the endotoxin clearance properties of peptides, LAL assay was performed according to the protocol provided in the kit (Pierce LAL Chromogenic Endotoxin Quantitation Kit, Thermo Fisher Scientific). Escalating concentrations of peptides (up to 50 μM) were added with 2 ng/ml LPS (E. coli O111:B4, Sigma-Aldrich, USA) for 15 min at 37°C. To this content, an equal volume of LAL reagent was added and incubated for 15 min and then chromogenic substrate was added. The contents were incubated for another 10 min and 25% acetic acid was used to stop the reaction. The end color (yellow) formed due to […] of substrate was read at 405 nm. LL-37 was used as a control.

The mark [11] stands for this setting: E. coli KCTC 1682, 99% growth inhibition, 2 × 10^5 CFU/ml, 37°C, 16 h, A600.
[12] abbreviates: A. baumannii KCCM 40203, 99% growth inhibition, 2 × 10^5 CFU/ml, 37°C, 16 h, A600.

For `CC[C@@H](C)[C@@H](NC(=O)[C@@H](C)NC(=O)[C@@H](CC(C)C)NC(=O)[C@@H](Cc1c[nH]c2ccccc12)NC(=O)[C@@H](CC(C)C)NC(=O)[C@H](N)CCCNC(=N)N)C(=O)N[C@H](Cc1c[nH]c2ccccc12)C(=O)N[C@H](CCCNC(=N)N)C(=O)N[C@H](CCCNC(=N)N)C(N)=O` [Pro9-3D] (H-[dR][dL][dW][dL][dA][dI][dW][dR][dR]-NH2), the “Minimal inhibitory concentration (MIC)” value in data set [1] amounted to 8 µM (≈ 10.1 µg/mL); in [2] (setting [11]), 8 µM (≈ 10.1 µg/mL); in [3] (KCCM 40203, 16 h), 4 µM (≈ 5.07 µg/mL); in [4], 4 µM (≈ 5.07 µg/mL); in [5] it was 8 µM (≈ 10.1 µg/mL); in [6], 8 µM (≈ 10.1 µg/mL). Besides, in [7], the “HC10 (peptide concentration which induces 10% hemolysis)” value worked out at 200 µM. For the same compound, in data set [8] (50 μM peptide), the “Survival of RAW264.7 macrophage cells” value was 40%.

`CC[C@H](C)[C@H](NC(=O)[C@H](C)NC(=O)[C@H](CC(C)C)NC(=O)[C@H](Cc1c[nH]c2ccccc12)NC(=O)[C@H](CC(C)C)NC(=O)[C@@H](N)CCCCN)C(=O)N[C@@H](Cc1c[nH]c2ccccc12)C(=O)N[C@@H](CCCCN)C(=O)N[C@@H](CCCCN)C(N)=O` [Pro9-3-K] (H-KLWLAIWKK-NH2): the “Minimal inhibitory concentration (MIC)” value in [1], in [2] (setting [11]), in data set [3] (setting [12]), in data set [4], in data set [5] and in data set [6] was 64 µM (≈ 75.8 µg/mL) each time. The “Survival of RAW264.7 macrophage cells” value in data set [8] (100 μM peptide) turned out to be 100%.

Regarding `CC[C@H](C)[C@H](NC(=O)CN)C(=O)NCC(=O)N[C@@H](C)C(=O)N[C@H](C(=O)N[C@@H](CC(C)C)C(=O)N[C@@H](CCCCN)C(=O)N[C@H](C(=O)N[C@@H](CC(C)C)C(=O)N[C@H](C(=O)N[C@H](C(=O)NCC(=O)N[C@@H](CC(C)C)C(=O)N1CCC[C@H]1C(=O)N[C@@H](C)C(=O)N[C@@H](CC(C)C)C(=O)N[C@H](C(=O)N[C@@H](CO)C(=O)N[C@@H](Cc1c[nH]c2ccccc12)C(=O)N[C@H](C(=O)N[C@@H](CCCCN)C(=O)N[C@@H](CCCNC(=N)N)C(=O)N[C@@H](CCCCN)C(=O)N[C@@H](CCCNC(=N)N)C(=O)N[C@@H](CCC(N)=O)C(=O)N[C@@H](CCC(N)=O)C(N)=O)[C@@H](C)CC)[C@@H](C)CC)[C@@H](C)O)[C@@H](C)O)C(C)C)C(C)C` [Melittin, reference compound], the “Relative selective index (HC10/GM of the MIC)” value in data set [9] was determined as 0.06. Besides, the “Minimal inhibitory concentration (MIC)” value in data set [1] was 8 µM (≈ 22.8 µg/mL); in [3] (setting [12]), 8 µM (≈ 22.8 µg/mL); in data set [4], 32 µM (≈ 91.1 µg/mL); in [5] it was 8 µM (≈ 22.8 µg/mL); in data set [6], 16 µM (≈ 45.5 µg/mL). Moreover, the “Hemolytic activity in sRBC (in words)” value in data set [7] (escalated dose of peptides, Fig. 1A) is “severe cytotoxicity even at low concentration”.

With LL-37, the “LPS neutralization (LAL assay)” value in data set [10] is 91%.

Turning to `CC[C@@H](C)[C@@H](NC(=O)[C@@H](C)NC(=O)[C@@H](CC(C)C)NC(=O)[C@@H](Cc1c[nH]c2ccccc12)NC(=O)[C@@H](CC(C)C)NC(=O)[C@H](N)CCCCN)C(=O)N[C@H](Cc1c[nH]c2ccccc12)C(=O)N[C@H](CCCCN)C(=O)N[C@H](CCCCN)C(N)=O` [Pro9-3D-K] (H-[dK][dL][dW][dL][dA][dI][dW][dK][dK]-NH2), the “Minimal inhibitory concentration (MIC)” value in data set [1] was found to be 32 µM (≈ 37.9 µg/mL); in data set [2] (setting [11]) it was 16 µM (≈ 19 µg/mL); in [3] (setting [12]) it was 32 µM (≈ 37.9 µg/mL); in data set [4], 16 µM (≈ 19 µg/mL); in data set [5], 32 µM (≈ 37.9 µg/mL); in data set [6], 32 µM (≈ 37.9 µg/mL). Further, the “Survival of RAW264.7 macrophage cells” value in [8] (50 μM peptide) was determined as 71%.

Regarding `CC[C@H](C)[C@H](NC(=O)[C@H](C)NC(=O)[C@H](CC(C)C)NC(=O)[C@H](Cc1c[nH]c2ccccc12)NC(=O)[C@H](CC(C)C)NC(=O)[C@@H](N)CCCNC(=N)N)C(=O)N[C@@H](Cc1c[nH]c2ccccc12)C(=O)N[C@@H](CCCNC(=N)N)C(=O)N[C@@H](CCCNC(=N)N)C(N)=O` [Pro9-3] (H-RLWLAIWRR-NH2), the “Minimal inhibitory concentration (MIC)” value in [1] came to 16 µM (≈ 20.3 µg/mL); in data set [2] (KCTC 1682, 16 h), 16 µM (≈ 20.3 µg/mL); in data set [3] (KCCM 40203, 16 h) it was 16 µM (≈ 20.3 µg/mL); in data set [4], 32 µM (≈ 40.6 µg/mL); in data set [5] it was 16 µM (≈ 20.3 µg/mL); in [6] it was 16 µM (≈ 20.3 µg/mL). The “HC10 (peptide concentration which induces 10% hemolysis)” value in data set [7] came to 200 µM. In addition, the “Survival of RAW264.7 macrophage cells” value in [8] (100 μM peptide) amounted to 100%.
